Reference: article PMC6349357, “Computational and experimental analysis of bioactive peptide linear motifs in the integrin adhesome” (PLoS ONE, 2019)
Marks after values point to notes of the source that are not given here.

Experiments:
[1] = tested on: resting platelets; experiment: Platelet aggregation induced by peptide in resting washed platelets (activation); format: cell-based, human (healthy volunteers); settings: for Activation, 5μM / Activation, 20μM: S3 Table, n=3; for Activation, 5μM: peptide 5 μM; for Activation, 20μM: peptide 20 μM; for Activation: platelet aggregation in resting platelets after 6 minutes incubation with peptide, pal-peptides 20 μM, tat-peptides 50 μM, optical density, aggregometer, mean, n>=3; for Aggregation before TRAP activation, donor h: replicate donor h; for Aggregation before TRAP activation, donor h / Aggregation before TRAP activation, donor i / Aggregation before TRAP activation, donor j: pal 20 μM, tat 50 μM; for Aggregation before TRAP activation, donor i: replicate donor i; for Aggregation before TRAP activation, donor j: replicate donor j
Protocol: (§1) Blood was drawn from healthy volunteers into a syringe containing a final volume of 15% Acid Citrate Dextrose (ACD). The blood/ACD mixture was then aliquoted into 15 ml Cellstar tubes, at volumes of 5ml per tube, and centrifuged at 150 rcf for 10 minutes to obtain platelet rich plasma (PRP). PRP was then transferred to a 50ml tube using a pipette. The pH was then adjusted to 6.5. Prostaglandin (PGE1) was then added with a final concentration of 1μM. The PRP was then centrifuged at 750 rcf. After centrifugation the platelet poor plasma (PPP) was discarded and the pellet was resuspended in buffer A (6 mM dextrose, 130 mM NaCl, 9 mM NaHCO3, 10 mM sodium citrate, 10 mM Tris base, 3 mM KCl, 0.81 mM KH2PO4 and 0.9 mM MgCl26H2O, pH 7.4). A platelet concentration of 3x10^5/μl or 1x10^6/μl was obtained by dilution depending on the experiment in which they were used. Platelets were left to rest for 45 minutes and supplemented with 1.8mM calcium chloride prior to use.
(§2) A platelet concentration of 3x10^5 /μl was used when performing standard aggregations and a concentration of 1x10^6 /μl was used for sample preparation for western blot analysis. The extent of platelet aggregation was measured by quantifying the optical density of the samples using the Bio-Data PAP-8 aggregometer (platelet aggregation profiler, Horsham, PA, USA). A temperature of 37°C was maintained and samples were stirred using magnets spinning at 1100 rpm. 200 μl of washed platelets was added to each aggregation tube. Different volumes of buffer, peptide and TRAP were added to achieve the desired concentrations. Peptide/buffer was added to each well after two minutes. TRAP, with a final concentration depending on the experiment, was added 6 minutes later and data was collected for an additional 7 minutes.

[2] = tested on: TRAP-activated platelets; experiment: Inhibition of TRAP-induced platelet aggregation after pre-incubation with peptide; format: cell-based, human (healthy volunteers); settings: for Aggregation after TRAP activation, donor h: replicate donor h; for Aggregation after TRAP activation, donor h / Aggregation after TRAP activation, donor i / Aggregation after TRAP activation, donor j: pal 20 μM, tat 50 μM; for Aggregation after TRAP activation, donor i: replicate donor i; for Aggregation after TRAP activation, donor j: replicate donor j
Protocol: as §1, §2

[3] = S3 Table, peptide 5 μM, aggregation after TRAP, n=3
[4] = S3 Table, peptide 20 μM, aggregation after TRAP, n=3
[5] = platelet aggregation induced by 4 μM TRAP in platelets pre-incubated with peptide (low value = inhibition), pal-peptides 20 μM, tat-peptides 50 μM, mean, n>=3

“pal-KVGAAKR-WEQLLTTIARTINEVENQI [B13p ITGA2b-JM2 U ACTN1-VBS, palmitylated chimeric peptide]” was tested, and the Activation, 5μM ([1]; unit assumed) was 3%, the Activation, 20μM ([1]; unit assumed) was 12% and the “Platelet aggregation remaining after TRAP (low = inhibition)” value [2, 3] was 75. The “Platelet aggregation remaining after TRAP (low = inhibition)” value [2, 4] was 63.
With “pal-KVGFFKR-FAKFEEERAR [B15p ITGA2b-JM U ITGB3-middle1, palmitylated chimeric peptide]” the Activation, 5μM ([1]; unit assumed) was 2%, the Activation, 20μM ([1]; unit assumed) was 4% and the “Platelet aggregation remaining after TRAP (low = inhibition)” value [2, 3] was 72. The “Platelet aggregation remaining after TRAP (low = inhibition)” value [2, 4] was 71.
In the case of “pal-KVGFFKR-LGKKPIYKK [B18p ITGA2b-JM U SDC4-middle, palmitylated chimeric peptide]”, the Activation, 5μM ([1]; unit assumed) was 61%, the Activation, 20μM ([1]; unit assumed) was 13% and the “Platelet aggregation remaining after TRAP (low = inhibition)” value [2, 3] was 65. For the same substance, the “Platelet aggregation remaining after TRAP (low = inhibition)” value [2, 4] was 27.
In the case of “pal-KVGFFKR-RMKKKDEGSYD [B17p ITGA2b-JM2 U SDC4-JM, palmitylated chimeric peptide]”, the Activation, 5μM ([1]; unit assumed) was 1%, the Activation, 20μM ([1]; unit assumed) was 2% and the “Platelet aggregation remaining after TRAP (low = inhibition)” value [2, 3] was 66. For the same substance, the “Platelet aggregation remaining after TRAP (low = inhibition)” value [2, 4] was 11.
In the case of “pal-KVGFFKR-TLELDRLMASLS [B20p ITGA2b-JM U TGFB1I1-LD, palmitylated chimeric peptide]”, the Activation, 5μM ([1]; unit assumed) was 2%, the Activation, 20μM ([1]; unit assumed) was 2% and the “Platelet aggregation remaining after TRAP (low = inhibition)” value [2, 3] was 71. The “Platelet aggregation remaining after TRAP (low = inhibition)” value [2, 4] was 66.
In the case of “pal-KVGFFKR-WEQLLTTIARTINEVENQI [B12p ITGA2b-JM U ACTN1-VBS, palmitylated chimeric peptide]”, the Activation, 5μM ([1]; unit assumed) was 1%, the Activation, 20μM ([1]; unit assumed) was 7% and the “Platelet aggregation remaining after TRAP (low = inhibition)” value [2, 3] was 74. The “Platelet aggregation remaining after TRAP (low = inhibition)” value [2, 4] was 66.
For “pal-LGKKPIYKK-(NH2) [pal-SDC4_middle, N-terminally palmitylated syndecan-4 middle (variable) region peptide]”, the Activation, 5μM ([1]; listed as A8p SDC4-middle, unit assumed) was 2%, the Activation, 5μM ([1]; listed as Variable (B), unit assumed) was 1% and the Activation, 20μM ([1]; unit assumed) was 1%. The Activation ([1]; unit assumed) was 0%, the Activation, donor 14 06 13 ([1]; replicate 14_06_13, SDC4 peptides and controls, 20 μM, unit assumed) was 1% and the “Activation, donor 18_06_13” value ([1]; replicate 18_06_13, SDC4 peptides and controls, 20 μM, in % (unit assumed)) was -1. For the same substance, the “Activation, donor 20_06_13” value ([1]; replicate 20_06_13, SDC4 peptides and controls, 20 μM, in % (unit assumed)) was 2, the Activation, donor 20 08 13 ([1]; replicate 20_08_13, SDC4 peptides and controls, 20 μM, unit assumed) was 0% and the “Activation, donor 22_08_13_DONOR1” value ([1]; replicate 22_08_13_DONOR1, SDC4 peptides and controls, 20 μM) was 1. For the same substance, the “Activation, donor 22_08_13_DONOR2” value ([1]; replicate 22_08_13_DONOR2, SDC4 peptides and controls, 20 μM) was 0, the “Aggregation before TRAP activation, donor h” value [1] was 1 and the “Aggregation before TRAP activation, donor i” value [1] was 0. The “Aggregation before TRAP activation, donor j” value [1] was 1, the “Aggregation (inhibition effects of syndecan-derived peptides)” value ([2]; S2 Table A, peptide 20 μM, TRAP 4 μM, mean, n=6) was 26 and the “Summary of effects of SDC4-derived palmitylated peptides and scrambled controls, 20μM” value ([2]; S2 Table B / S2 Fig, 20 μM, activation of resting platelets and inhibition of aggregation induced by 4 μM TRAP, in words) was “Inhibitor”. The “Platelet aggregation remaining after TRAP (low = inhibition)” value ([2]; S3 Table, peptide 5 μM, aggregation after TRAP, n=3, listed as A8p SDC4-middle) was 72, the “Platelet aggregation remaining after TRAP (low = inhibition)” value ([2]; S3 Table, peptide 5 μM, aggregation after TRAP, n=3, listed as Variable (B)) was 59 and the “Platelet aggregation remaining after TRAP (low = inhibition)” value ([2]; S3 Table, peptide 20 μM, aggregation after TRAP, n=3, listed as A8p SDC4-middle) was 41. For the same substance, the “Platelet aggregation remaining after TRAP (low = inhibition)” value ([2]; S3 Table, peptide 20 μM, aggregation after TRAP, n=3, listed as Variable (B)) was 26, the “Aggregation after TRAP, peptide alone 1x (A 1x / B 1x)” value ([2]; TRAP 2 μM after 6 minutes pre-incubation, 4 μM pal-peptides, 10 μM tat-peptides, mean n = 3) was 31.67 and the “Aggregation after TRAP, peptide alone 2x (A 2x / B 2x)” value ([2]; TRAP 2 μM after 6 minutes pre-incubation, double concentration of 4 μM (pal) / 10 μM (tat), mean n = 3) was 1.67. The “Platelet aggregation after TRAP activation” value [2, 5] was 3 ^*, the “Inhibition, donor 14_06_13” value ([2]; replicate 14_06_13, peptide 20 μM, TRAP 4 μM) was 60 and the “Inhibition, donor 18_06_13” value ([2]; replicate 18_06_13, peptide 20 μM, TRAP 4 μM) was 23. The “Inhibition, donor 20_06_13” value ([2]; replicate 20_06_13, peptide 20 μM, TRAP 4 μM) was 51, the “Inhibition, donor 20_08_13” value ([2]; replicate 20_08_13, peptide 20 μM, TRAP 4 μM) was 7 and the “Platelet aggregation remaining after TRAP (low = inhibition)” value ([2]; replicate 22_08_13_DONOR1, peptide 20 μM, TRAP 4 μM) was 3. For the same substance, the “Platelet aggregation remaining after TRAP (low = inhibition)” value ([2]; replicate 22_08_13_DONOR2, peptide 20 μM, TRAP 4 μM) was 14, the “Aggregation after TRAP activation, donor h” value ([2]; TRAP 4 μM) was 3 and the “Aggregation after TRAP activation, donor i” value ([2]; TRAP 4 μM) was 2. For the same substance, the “Aggregation after TRAP activation, donor j” value ([2]; TRAP 4 μM) was 4.
For “pal-NNPLYKEA-(NH2) [pal-ITGB3_middle2, N-terminally palmitylated ITGB3 peptide NNPLYKEA]”, the Activation ([1]; unit assumed) was 1%, the “Aggregation before TRAP activation, donor h” value [1] was 2 and the “Aggregation before TRAP activation, donor i” value [1] was 2. For the same substance, the “Aggregation before TRAP activation, donor j” value [1] was 1, the “Platelet aggregation remaining after TRAP (low = inhibition)” value [2, 5] was 74 and the “Aggregation after TRAP activation, donor h” value ([2]; TRAP 4 μM) was 74. For the same substance, the “Aggregation after TRAP activation, donor i” value ([2]; TRAP 4 μM) was 71 and the “Aggregation after TRAP activation, donor j” value ([2]; TRAP 4 μM) was 78.
